Results taken from the NIST ThermoML archive (doi:10.1016/j.fluid.2005.08.006).
± gives the expanded uncertainty stated by the source.

test: refractive index (Na D-line) (dimensionless); conditions: 293.15 K; 101.33 kPa; Liquid; Standard Abbe refractometry

| SMILES | refractive index |
| --- | --- |
| CC(C)C(=O)O [2-methylpropanoic acid] | 1.3933 ± 0.0007 |
| C1CCCCC1 [cyclohexane] | 1.4265 ± 0.0007 |
| CCCCCCCCCC [decane] | 1.4105 ± 0.0007 |
| CCO [ethanol] | 1.3612 ± 0.0007 |
| CCCCCC [hexane] | 1.3749 ± 0.0007 |
| CCCCC(=O)O [pentanoic acid] | 1.4087 ± 0.0007 |
| CCC(=O)O [propanoic acid] | 1.381 ± 0.0007 |
